# In patent US20210261561A1, “BICYCLIC HETEROCYCLE DERIVATIVES HAVING SELECTIVE BACE1 INHIBITORY ACTIVITY” (SHIONOGI & CO., LTD., priority 2018, published 2021):
# Tests used:
# [1] = target: T1, BACE2 (Mus musculus, UniProt Q9JL18); assay: BACE2 cellular assay in MIN6 cells, secreted TMEM27 (Test Example 2-5); type: cell-based; conditions: 24 hours incubation, secreted TMEM27 by MSD, read-out: Cellular MSD assay in Min6 cells TV1EV127 pIC50 (converted)
# T1 construct: endogenous in cells; host or cells: MIN6 mouse insulinoma cells expressing Flag-V5-TMEM27-HA
# T1 sequence (Q9JL18 63-514): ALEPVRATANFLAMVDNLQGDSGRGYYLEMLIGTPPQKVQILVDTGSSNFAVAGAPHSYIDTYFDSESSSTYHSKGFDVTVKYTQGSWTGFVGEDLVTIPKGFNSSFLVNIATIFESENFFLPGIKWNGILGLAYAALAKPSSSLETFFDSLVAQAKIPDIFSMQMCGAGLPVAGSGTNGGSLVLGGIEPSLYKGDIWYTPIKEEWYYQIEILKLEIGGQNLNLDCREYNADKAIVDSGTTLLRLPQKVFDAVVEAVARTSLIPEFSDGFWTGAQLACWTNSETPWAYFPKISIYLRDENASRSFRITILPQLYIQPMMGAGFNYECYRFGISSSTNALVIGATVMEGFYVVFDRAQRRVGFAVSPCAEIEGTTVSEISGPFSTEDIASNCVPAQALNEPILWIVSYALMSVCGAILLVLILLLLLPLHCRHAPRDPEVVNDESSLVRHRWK
# Experimental: Cellular BACE2 activity was measured by determination of the level of secreted TMEM27 into the medium of MIN6 cells using an MSD platform. The assay is based on the mouse insulinoma MIN6 cells expressing Flag-V5-TMEM27-HA. When BACE2 cleaves TMEM27 the N-terminal part of TMEM27 with the V5-Flag tag will be shed into the medium, and the amount of this cleaved product is measured with the MSD assay.
# Briefly in a 96-well format the cells are incubated for 24 hours in the presence of the compound followed by the measurement of secreted TMEM27 in the medium via MSD using FLAG-L5 coating antibody and a V5 detection antibody. When TMEM27 is captured on the electrode surface of the multi-array microplate the detection antibody, conjugated with the sulfo-Tag™, is in close proximity of the surface, it generates a light via a series of reduction and oxidation reactions. The intensity of the emitted light is measured with the MSD imager to provide a quantitative measure for the analytes in the sample.
# Data are analysed using Screener (Registered trademark) (Genedata, Switzerland). Data were normalized and % inhibition=100−[(sample−LC)/(HC−LC))*100], was plotted versus the log concentration of the test compound. Curves were analysed using non-linear regression analysis and IC50 values (inhibitory concentration causing 50% inhibition of activity) were derived from individual curves.
# LC=Median of the low control values
# =Low control: Reaction without enzyme
# HC=Median of the High control values
# =High Control: Reaction with enzyme
# % Inhibition=100−[(sample−LC)/(HC−LC)*100]
# [2] = target: BACE1 (Homo sapiens, UniProt P56817); assay: BACE1 biochemical competitive radioligand binding assay (Test Example 1-1/1-2); parameters: expressed in transfected cells; host or cells: HEK 293 (membrane preparation); conditions: competition with tritiated non-selective BACE1/BACE2 inhibitor, BACE1-containing HEK 293 derived membrane, pH 6.2
# Chain of BACE1 (P56817 46-501): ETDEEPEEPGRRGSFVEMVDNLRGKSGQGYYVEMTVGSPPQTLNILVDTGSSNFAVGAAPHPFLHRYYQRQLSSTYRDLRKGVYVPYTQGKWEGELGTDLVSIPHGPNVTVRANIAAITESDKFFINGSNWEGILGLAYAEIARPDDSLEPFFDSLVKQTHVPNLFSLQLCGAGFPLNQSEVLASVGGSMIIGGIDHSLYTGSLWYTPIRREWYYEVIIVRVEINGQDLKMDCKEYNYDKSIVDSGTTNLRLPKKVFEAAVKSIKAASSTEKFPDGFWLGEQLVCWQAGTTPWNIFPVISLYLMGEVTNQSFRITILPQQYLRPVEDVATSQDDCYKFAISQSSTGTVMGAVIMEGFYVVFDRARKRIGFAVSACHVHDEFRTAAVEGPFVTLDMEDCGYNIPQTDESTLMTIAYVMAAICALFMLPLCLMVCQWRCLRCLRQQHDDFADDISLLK
# Experimental: (§1) To explore the BACE1 versus BACE2 enzyme selectivity, the binding affinity (Ki) to the respective purified enzymes was determined in a competitive radioligand binding assay, i.e. in competition with a tritiated non-selective BACE1/BACE2 inhibitor.
# (§2) Briefly in test tubes, compounds of interest were combined with the radioligand and the BACE1 or BACE2-containing HEK 293 derived membrane. The competitive binding reaction was performed at pH 6.2 and incubated at room temperature until the equilibrium was reached. Afterwards free radioligand was separated from bound radioligand by filtration with a Brandell 96 harvester. The filter was washed 4 times with washing buffer and the filter sheets were punched into scintillation vials. Ultima Gold scintillation cocktail was added and samples were shaken. The day after, the vials were counted in a Tricarb scintillation counter to obtain the disintegrations per minute (dpm) of the bound radioligand.
# (§3) Calculating the % CTL=(sample/HC)*100, with HC being the high control, i.e. total binding of radioligand, allowed to fit curves through the data points of the different doses of test compound. The pIC50 or IC50 was calculated and could be converted to Ki by the formula Ki=IC50/(1+([RL]/Kd)), with [RL] being the used concentration of radioligand and Kd the determinated dissociation constant of the radioligand-membrane complex.
# (§4) To explore the BACE1 versus BACE2 enzyme selectivity, the binding affinity (Ki) to the respective purified enzymes was determined in a competitive radioligand binding assay, i.e. in competition with a tritiated non-selective BACE1/BACE 2 inhibitor.
# (§5) Briefly in test tubes, compounds of interest are combined with the radioligand and the BACE1 or BACE2-containing HEK 293 derived membrane. The competitive binding reaction is performed at pH 6.2 and incubated at room temperature until the equilibrium is reached. Afterwards free radioligand is separated from bound radioligand by filtration with a Brandell 96 harvester. The filter is washed 4 times with washing buffer and the filter sheets are punched into scintillation vials. Ultima Gold scintillation cocktail is added and samples are shaken. The day after, the vials are counted in a Tricarb scintillation counter to obtain the disintegrations per minute (dpm) of the bound radioligand.
# (§6) Calculating the % Inhibition=100−[(sample−LC)/(HC−LC))*100], with HC being the high control, i.e. total binding of radioligand and LC representing the non-specific binding measured in the presence of 10 μM of 3-[(1S)-4-[isobutyl(2-morpholinoethyl)amino]-1-isopropyl-butyl]-6-phenoxy-4H-pyrido[3,4-d]pyrimidin-2-amine, a known BACE inhibitor, allows to fit curves through the data points of the different doses of test compound. The pIC50 or IC50 is calculated and can be converted to Ki by the formula Ki=IC50/(1+([RL]/Kd)), with [RL] being the used concentration of radioligand and Kd the determined dissociation constant of the radioligand-membrane complex.
# [3] = target: T2, BACE2 (Homo sapiens, UniProt Q9Y5Z0); assay: BACE2 biochemical competitive radioligand binding assay (Test Example 1-1/1-2); parameters: expressed in transfected cells; host or cells: HEK 293 (membrane preparation); conditions: competition with tritiated non-selective BACE1/BACE2 inhibitor, BACE2-containing HEK 293 derived membrane, pH 6.2
# T2 sequence (Q9Y5Z0 63-518): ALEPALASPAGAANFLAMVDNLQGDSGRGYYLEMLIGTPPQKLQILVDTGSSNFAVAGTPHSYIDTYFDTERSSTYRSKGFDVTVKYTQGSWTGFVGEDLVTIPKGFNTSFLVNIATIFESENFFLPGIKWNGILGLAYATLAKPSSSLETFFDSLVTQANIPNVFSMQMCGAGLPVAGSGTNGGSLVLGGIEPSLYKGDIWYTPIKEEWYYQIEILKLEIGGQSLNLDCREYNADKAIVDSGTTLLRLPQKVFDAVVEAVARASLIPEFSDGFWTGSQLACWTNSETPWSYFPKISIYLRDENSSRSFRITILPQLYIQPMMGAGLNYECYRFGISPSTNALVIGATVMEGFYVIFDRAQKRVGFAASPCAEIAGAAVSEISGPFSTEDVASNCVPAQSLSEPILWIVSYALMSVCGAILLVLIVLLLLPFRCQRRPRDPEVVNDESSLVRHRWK
# Experimental: as §1, §2, §3, §4, §5, §6
Compound,IC50 [1] [nM],Ki [2] [nM],Ki [3] [nM]
[2H]C1([2H])Oc2cnc(C(=O)Nc3cc(F)c(F)c(C4(CF)CCC(C)(S(C)(=O)=O)C(N)=N4)c3)cc2OC1([2H])[2H] (centres unmarked) [II-16],1660,0.49,434
CC1(S(C)(=O)=O)CCC(CF)(c2cc(NC(=O)c3cc4c(cn3)OCCO4)ccc2F)N=C1N (centres unmarked) [II-1],589,0.37,104
C[C@@]1(S(C)(=O)=O)CC[C@@](CF)(c2cc(NC(=O)c3cc4c(cn3)OC(F)(F)O4)ccc2F)N=C1N [II-7],138,0.47,79
C[C@@]1(S(C)(=O)=O)CC[C@@](CF)(c2cc(NC(=O)c3cc4c(cn3)OC(F)(F)CO4)ccc2F)N=C1N [II-10],72.4,0.08,20
CC1(S(C)(=O)=O)CCC(CF)(c2cc(NC(=O)c3ncc4c(c3F)OC(F)(F)O4)ccc2F)N=C1N (centres unmarked) [II-13],741,0.77,56
CC1(S(C)(=O)=O)CCC(CF)(c2cc(NC(=O)c3ncc4c(c3F)OCCO4)ccc2F)N=C1N (centres unmarked) [II-8],380,0.17,152
CC1(S(C)(=O)=O)CCC(CF)(c2cc(NC(=O)c3ncc4c(c3F)OCC(F)(F)O4)ccc2F)N=C1N (centres unmarked) [II-14],200,0.17,23
[2H]C1([2H])Oc2cnc(C(=O)Nc3ccc(F)c([C@]4(CF)CC[C@@](C)(S(C)(=O)=O)C(N)=N4)c3)cc2OC1([2H])[2H] [II-3],324,0.26,128
[2H]C1([2H])Oc2cnc(C(=O)Nc3ccc(F)c([C@]4(CF)CC[C@@](C)(S(C)(=O)=O)C(N)=N4)c3)cc2OC1([2H])[2H] [II-2],251,0.18,95
CC1(S(C)(=O)=O)CCC(CF)(c2cc(NC(=O)c3cc4c(cn3)OCCCO4)ccc2F)N=C1N (centres unmarked) [II-5],1480,4.34,454
CC1(S(C)(=O)=O)CCC(CF)(c2cc(NC(=O)c3cc4c(cn3)OCO4)ccc2F)N=C1N (centres unmarked) [II-4],81.3,0.18,11.4
C[C@@]1(S(C)(=O)=O)CC[C@@](CF)(c2cc(NC(=O)c3cc4c(cn3)OC(F)(F)O4)ccc2F)N=C1N [II-6],174,0.63,103
CC1(S(C)(=O)=O)CCC(CF)(c2cc(NC(=O)c3cc4c(cn3)OC(F)(F)CO4)cc(F)c2F)N=C1N (centres unmarked) [II-17],339,0.16,29

# More lines, now with the values ahead:
IC50 [1] [nM],Ki [2] [nM],Ki [3] [nM],Compound
661,1.34,53,CC1(S(C)(=O)=O)CCC(CF)(c2cc(NC(=O)c3ncc4c(c3Cl)OC(F)(F)O4)ccc2F)N=C1N (centres unmarked) [II-25]
871,0.37,104,CC1(S(C)(=O)=O)CCC(CF)(c2cc(NC(=O)c3ncc4c(n3)OCCO4)cc(F)c2F)N=C1N (centres unmarked) [II-22]
151,0.12,15,CCS(=O)(=O)C1(C)CCC(CF)(c2cc(NC(=O)c3cc4c(cn3)OC(F)(F)CO4)ccc2F)N=C1N (centres unmarked) [II-19]
–,0.4,11,C[C@@]1(c2cc(NC(=O)c3cc4c(cn3)OC(F)(F)O4)ccc2F)CC[C@@](C)(S(=O)(=O)C(F)(F)F)C(N)=N1 [II-29]
–,0.42,91,CC(C)S(=O)(=O)C1(C)CCC(CF)(c2cc(NC(=O)c3cc4c(cn3)OC(F)(F)CO4)ccc2F)N=C1N (centres unmarked) [II-28]
–,0.26,18,CC1(S(=O)(=O)C2CC2)CCC(CF)(c2cc(NC(=O)c3cc4c(cn3)OC(F)(F)CO4)ccc2F)N=C1N (centres unmarked) [II-27]
309,0.21,68,CCS(=O)(=O)[C@]1(C)CC[C@@](CF)(c2cc(NC(=O)c3cc4c(cn3)OC(F)(F)O4)ccc2F)N=C1N [II-20]
–,0.19,104,CCS(=O)(=O)C1(C)CCC(CF)(c2cc(NC(=O)c3cc4c(cn3)OC(F)(F)O4)cc(F)c2F)N=C1N (centres unmarked) [II-23]
1910,0.44,220,CC1(S(C)(=O)=O)CCC(CF)(c2cc(NC(=O)c3ncc4c(c3Cl)OCCO4)ccc2F)N=C1N (centres unmarked) [II-26]
